Test results taken from patent US11684672B2, “Combinations of copanlisib with anti-PD-1 antibody” (BAYER PHARMA AKTIENGESELLSCHAFT, priority 2017, dated 2023).
Counter-ions that a name gives are not always drawn.

Legend:
[1] = tested on: A20 diffuse large B cell lymphoma; assay: Anti-tumor efficacy in A20 DLBCL syngeneic mouse model; type: in vivo; conditions: monotherapy; Cpd A 14 mg/kg i.v., Cpd B 200 μg/mouse i.v.; female BALB/c mice; vs vehicle control group
Description: (§1) A20 diffuse large B cell lymphoma and CT26 colorectal cancer cells were maintained in vitro in cell cultural medium supplemented with serum (according to the instructions for each corresponding cell lines) at 37° C. in an atmosphere of 5% CO2 in air. The tumor cells were routinely subcultured twice weekly. The cells in an exponential growth phase were harvested and counted for tumor inoculation. To investigate anti-tumor efficacy and mechanisms of action in vivo, each mouse was inoculated subcutaneously at the right lower flank region with tumor cells (1×10^5−2×10^6 depending on the cell lines) in 0.1 ml of PBS with or without metrigel for tumor development. Before commencement of treatment, all animals were weighed and the tumor volumes were measured using a caliper. […]
(§2) Tumor volumes were measured 2-3 times weekly in two dimensions using a caliper, and the volume was expressed in mm^3 using the formula: V=0.5 a×b2 where a and b are the long and short diameters of the tumor, respectively. Tumor weight was measured at study termination. […]
The anti-tumor activity of Compound A and Compound B was assessed firstly in an immune-checkpoint blocker resistant DLBCL syngeneic A20 xenograft mouse model as single agent and in combination. […] Body weights and tumor size were measured three times per week. […] The tolerability was assessed by body weight change. […]

[2] = tested on: CT26 (KRAS^mut, non-MSI^high) colorectal cancer; assay: Anti-tumor efficacy in CT26 colorectal cancer syngeneic mouse model; type: in vivo; conditions: monotherapy
Description: as §1, §2
Therefore, the anti-tumor activity of Compound A and Compound B was assessed in the mouse syngeneic CT26 (KRAS^mut, non-MSI^high) colorectal cancer xenograft model as single agent and in combination. […]

[3] = tested on: regulatory T cells (Treg); assay: Analysis of regulatory T cells (Treg) and CD8+ T cells in tumor, spleen and thymus of the A20 model; type: in vivo, mouse
Description: Sampling procedures: organ and tumor tissues were quickly removed and weighted 3 h post the final dose for FACS, IHC (FFPE), and RNA/pretein expression analysis.
The anti-tumor activity of Compound A and Compound B was assessed firstly in an immune-checkpoint blocker resistant DLBCL syngeneic A20 xenograft mouse model as single agent and in combination. A20 cells were inoculated subcutaneously at the right flank of female BALB/c mice for tumor development. The treatment was started when the average tumor size reached about 116 mm^3. Mice were allocated randomly into experimental groups according to their tumor sizes and being treated from day 12 after tumor cell inoculation. Cpd A was dosed at 14 mg/kg and Cpd B at 200 μg/mouse intravenously with the schedule indicated in FIG. 1 A. Treatment groups were: control antibody (ctrl Ab), vehicle control (vehicle), compound A monotherapy (Cpd. A), Cpd. B monotherapy, 3 combination groups with different dosing schedules. Body weights and tumor size were measured three times per week. Tumor growth curve (FIG. 1B), tumor weight at the end of treatment (FIG. 1C) and tumor response (FIG. 1D) were used as anti-tumor activity endpoints. The tolerability was assessed by body weight change. […]

COc1c(OCCCN2CCOCC2)ccc2c1N=C(NC(=O)c1cnc(N)nc1)N1CCN=C21 [Cpd A, 2-amino-N-[7-methoxy-8-(3-morpholin-4-ylpropoxy)-2,3-dihydroimidazo[1,2-c]quinazolin-5-yl]pyrimidine-5-carboxamide dihydrochloride]
relative tumor growth inhibition (TGI %) [1]: 78%
TGI [2]: 71%
effect on Treg in thymus and spleen ([3]; A20 model, thymus and spleen): minimal or no effects
effect on Treg population in tumors ([3]; A20 tumors, Treg among CD4+ T cells): specifically reduce the Treg population in tumors
